Experimental data reported in ChEMBL document CHEMBL1201862, “PubChem BioAssay data set” (2004).
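Where inhibition never reached the appropriate level, the endpoint shown equals the highest concentration tested. Otherwise, values were interpolated linearly from a five-concentration, 48-hour dose response in 96-well plates. Abbreviation: GI50, concentration required for 50% inhibition of growth.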 Active and inactive are the calls of the source. No stated cut-off is given here; in the data, active = GI50 up to about 1.1 µM and inactive = higher.

What was measured:
Assay in all cases: DTP human tumour cell line panel, 48 h
[1] = test system: TK-10
[2] = test system: NCI-H226
[3] = test system: HCC 2998
[4] = test system: UO-31
[5] = test system: OVCAR-8
[6] = test system: ACHN
[7] = test system: UACC-62
[8] = test system: SF-268
[9] = test system: A549
[10] = test system: SW-620
[11] = test system: NCI-H460
[12] = test system: OVCAR-3
[13] = test system: HCT-116
[14] = test system: NCI-H23
[15] = test system: IGROV-1
[16] = test system: SK-MEL-28
[17] = test system: MCF7
[18] = test system: UACC-257
[19] = test system: OVCAR-4
[20] = test system: SF-539

Measured: GI50

CC(C)(C)CC(C)(C)c1cc(O)c(O)c(CN2CCCCC2)c1
inactive: [1] 16.1 µM | [2] 16.7 µM | [3] 10.6 µM | [4] 13.3 µM | [5] 15.6 µM | [6] 12.9 µM | [7] 16.3 µM | [8] 12.6 µM | [9] 17.1 µM | [10] 13.2 µM | [11] 11.7 µM | [12] 14.7 µM | [13] 15.3 µM | [14] 16.1 µM | [15] 17.5 µM | [16] 17.7 µM | [17] 12.5 µM | [18] 13.3 µM | [19] 19.2 µM

CCOC(=O)C1=C(C(C)=O)CSC(c2ccccc2)=N1
inactive: [2] > 89.7 µM | [3] > 100 µM | [4] 97.9 µM | [5] > 100 µM | [7] > 100 µM | [8] > 100 µM | [9] > 100 µM | [10] > 100 µM | [11] > 100 µM | [12] > 100 µM | [13] > 100 µM | [14] 98.4 µM | [15] > 100 µM | [16] > 100 µM | [17] 40.7 µM | [20] > 100 µM | [18] > 100 µM | [19] > 100 µM

COC(=O)C1=C(C(=O)OC)SC2(S1)C1=C(CCC1)SC(C(=O)OC)=C2C(=O)OC
inactive: [1] 14.9 µM | [3] 16.3 µM | [4] 10.8 µM | [5] 10.2 µM | [6] 12.3 µM | [7] 15 µM | [8] 15.5 µM | [9] 16.5 µM | [10] 2.43 µM | [11] 5.37 µM | [12] 12.2 µM | [13] 1.77 µM | [14] 18.6 µM | [15] 12.9 µM | [16] 10.7 µM | [17] 4.33 µM | [20] 1.48 µM | [18] 15.7 µM | [19] 15.1 µM

O=C(c1ccccc1O)c1cc(-c2ncc3c(=O)c4ccccc4oc3n2)c(-c2ccccc2O)[nH]c1=O
inactive: [2] 15 µM | [3] 17 µM | [4] 14.9 µM | [5] 30.7 µM | [7] 22.9 µM | [8] 22.5 µM | [9] 25.5 µM | [10] 19.2 µM | [11] 23.3 µM | [12] 24 µM | [13] 20.7 µM | [14] 19.7 µM | [15] 26.9 µM | [16] 23.6 µM | [17] 14.3 µM | [20] 1.47 µM | [18] 18.9 µM | [19] 22.5 µM

COc1cccc(-c2nc3c(C(=O)NCCN(C)C)cccc3[nH]2)c1
inactive: [2] 14 µM | [3] 15.6 µM | [4] 11.2 µM | [5] 15.7 µM | [7] 16.7 µM | [8] 13.2 µM | [9] 18.5 µM | [10] 12.7 µM | [11] 11.1 µM | [12] 22.7 µM | [13] 7.73 µM | [14] 19.2 µM | [15] 21.4 µM | [16] 15.8 µM | [17] 21.8 µM | [20] 17.1 µM | [18] 16.1 µM | [19] 26.3 µM

COc1ccc2c(c1)CC[C@@H]1[C@@H]2CC[C@]2(C)C(=O)/C(=C/c3ccc(O)c(OC)c3)C[C@@H]12
inactive: [1] 43.1 µM | [2] 44.2 µM | [3] 31.6 µM | [4] 71 µM | [5] 91.8 µM | [6] > 100 µM | [7] 68.5 µM | [9] 51.6 µM | [10] 58.2 µM | [11] 39.4 µM | [12] > 100 µM | [14] 77.1 µM | [15] 63.8 µM | [16] 52.1 µM | [17] 60.4 µM | [18] 57.8 µM | [19] 55.8 µM

CCc1nc(N)c2nc(-c3ccc(C#N)cc3)oc2n1
inactive: [1] > 100 µM | [2] > 100 µM | [3] > 100 µM | [4] > 100 µM | [5] > 100 µM | [6] > 100 µM | [7] > 100 µM | [8] > 100 µM | [9] > 100 µM | [10] > 100 µM | [11] > 100 µM | [12] > 100 µM | [13] > 100 µM | [14] > 100 µM | [15] > 100 µM | [16] > 100 µM | [17] > 100 µM | [20] > 100 µM | [18] > 100 µM

Cc1ccc(-c2n[nH]c(=O)n2N2C(=O)c3ccccc3C2=O)cc1
inactive: [1] > 100 µM | [2] > 100 µM | [3] > 100 µM | [4] > 100 µM | [5] > 100 µM | [6] > 100 µM | [7] > 100 µM | [8] > 100 µM | [9] > 100 µM | [10] > 100 µM | [11] > 100 µM | [12] > 100 µM | [13] > 100 µM | [14] > 100 µM | [15] > 100 µM | [16] > 100 µM | [17] > 100 µM | [20] > 100 µM | [18] > 100 µM

O=C(Nc1ccccc1)N1CC(CN2CCN(c3ccccc3)CC2)OC1=O (centres undefined)
inactive: [1] > 100 µM | [2] > 100 µM | [3] > 100 µM | [4] > 100 µM | [6] > 100 µM | [7] > 100 µM | [8] > 100 µM | [9] > 100 µM | [10] > 100 µM | [11] > 100 µM | [13] > 100 µM | [14] > 100 µM | [15] 46.3 µM | [16] > 100 µM | [17] > 100 µM | [18] > 100 µM | [19] > 100 µM

NC(CCCCCP(=O)(c1ccccc1)C1C=CC=CC1)C(=O)O (centres undefined)
inactive: [1] > 100 µM | [3] > 10 µM | [4] > 100 µM | [5] > 100 µM | [6] > 100 µM | [7] 51.2 µM | [8] > 100 µM | [9] > 100 µM | [10] > 100 µM | [11] > 100 µM | [12] > 100 µM | [13] > 100 µM | [14] > 100 µM | [15] > 100 µM | [16] > 100 µM | [17] > 100 µM | [20] > 100 µM | [18] > 100 µM | [19] > 100 µM

COC(=O)[C@]1(c2ccc(N(C)C)cc2OC)C[C@@H]2CCCN(CCc3c1[nH]c1ccccc31)C2
inactive: [2] 17.4 µM | [3] 15.3 µM | [4] 15.5 µM | [5] 24.9 µM | [7] 18 µM | [8] 21.1 µM | [9] 34.4 µM | [10] 40.3 µM | [11] 16.7 µM | [12] 18.5 µM | [13] 29.9 µM | [14] 18.9 µM | [15] 20.2 µM | [16] 19.6 µM | [17] 15.9 µM | [20] 20.5 µM | [18] 21 µM | [19] 13.3 µM

O=C1c2cc3c(cc2CC12Cc1ccc4c(c1C2=O)CCC4)CCC3 (centres undefined)
inactive: [1] > 100 µM | [3] > 100 µM | [4] > 100 µM | [5] > 100 µM | [6] > 100 µM | [8] > 100 µM | [9] > 100 µM | [10] > 100 µM | [11] > 100 µM | [12] 75.5 µM | [13] > 100 µM | [14] > 100 µM | [15] > 100 µM | [16] > 100 µM | [17] > 100 µM | [20] > 100 µM | [18] > 100 µM | [19] 50.6 µM

CS/C1=C(\c2ccc(C)cc2)N(c2ccccc2)C(=O)C(=O)N(c2ccccc2)/C(c2ccc(C)cc2)=C(/SC)SS1
inactive: [1] > 100 µM | [3] > 100 µM | [4] > 100 µM | [5] > 100 µM | [6] > 100 µM | [7] > 100 µM | [8] > 100 µM | [10] > 100 µM | [11] > 100 µM | [12] > 100 µM | [13] > 100 µM | [14] > 100 µM | [15] > 100 µM | [16] > 100 µM | [17] > 100 µM | [20] > 100 µM | [18] > 100 µM | [19] > 100 µM

CC(C)Oc1c(O)c2c3c(oc(=O)n3C=CC2c2ccccc2F)c1OC(C)C (centres undefined)
inactive: [1] 40.6 µM | [2] 32.6 µM | [4] 24.4 µM | [5] 41.8 µM | [6] 35.7 µM | [7] 21.1 µM | [8] 64.9 µM | [9] 26.8 µM | [10] 32.9 µM | [11] 25 µM | [12] 44.1 µM | [13] 21.7 µM | [14] 30.5 µM | [15] 44.8 µM | [16] 53.8 µM | [17] 28.8 µM | [20] 22.5 µM | [18] 28.6 µM | [19] 46 µM

CCCCCCCCC/C=C1\CC(CO)(COC(=O)c2ccccc2)OC1=O (centres undefined)
inactive: [1] 18.6 µM | [2] 23.2 µM | [3] 22.8 µM | [4] 16.3 µM | [6] 29.8 µM | [7] 25.4 µM | [8] 22.7 µM | [9] 20 µM | [10] 19.1 µM | [11] 16 µM | [12] 22.4 µM | [13] 22.2 µM | [14] 19.4 µM | [15] 32.1 µM | [16] 16.7 µM | [17] 23.8 µM | [18] 26.5 µM | [19] 35.1 µM
